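In this assay, cells in 96-well plates receive the compound at five concentrations for 48 hours. Endpoints are linearly interpolated between the surrounding concentrations. Here, GI50 denotes the concentration required for 50% inhibition of growth. TGI: total growth inhibition.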

These results are taken from PubChem BioAssay (NCI).

Some test systems named below: OVCAR-5 ovarian; SF-539 CNS; EKVX NSCLC; OVCAR-8 ovarian; A549 NSCLC; 786-0 renal; UO-31 renal; SR leukemia; HOP-92 NSCLC.
Test in all cases: NCI tumour cell line growth inhibition, 48 h

With `CCOC(=O)C12CCCC1(O)N(NC(=O)c1cccc(Cl)c1)C(C)=C2C(=O)OC` (centres undefined), the TGI with OVCAR-5 ovarian, in the assay on SF-539 CNS, with EKVX NSCLC, in the assay on OVCAR-8 ovarian, with A549 NSCLC and in the assay with 786-0 renal was more than 100 µM each time. Besides, the TGI with UO-31 renal and with SR leukemia was more than 100 µM in each case.

`O=C(O)/C(Cl)=C(\Cl)Nc1cccc(C(F)(F)F)c1`: the TGI was 22.3 µM in the assay with HOP-92 NSCLC; more than 100 µM in the assay on EKVX NSCLC; more than 100 µM in the assay on OVCAR-8 ovarian; more than 100 µM in the assay on A549 NSCLC; more than 100 µM in the assay on 786-0 renal; more than 100 µM with UO-31 renal.

Take `CN1CCC23c4c5ccc(O)c4OC2C(=NN=C2CCC4(O)C6Cc7ccc(O)c8c7C4(CCN6C)C2O8)CCC3(O)C1C5` (centres undefined): the TGI in the assay on HOP-92 NSCLC, with OVCAR-5 ovarian, in the assay on SF-539 CNS, with EKVX NSCLC, in the assay with OVCAR-8 ovarian and in the assay on A549 NSCLC was more than 100 µM each time. Further, the TGI in the assay with 786-0 renal and with UO-31 renal was more than 100 µM throughout.

As for `C/C(=N\O)c1sc(-n2nc(-c3ccccc3)cc2-c2ccccc2)nc1C`, the TGI with SF-539 CNS is 16.7 µM; in the assay with EKVX NSCLC, more than 31.6 µM; in the assay with OVCAR-8 ovarian, 18.1 µM; in the assay with A549 NSCLC, 25.3 µM; in the assay on 786-0 renal it was 15.8 µM; with UO-31 renal, 15.3 µM. In the assay with SR leukemia, this molecule displayed a TGI of 28.6 µM.

For `COc1ccc2cc(C(=O)c3ccccc3C(=O)O)ccc2c1`, the TGI in the assay with OVCAR-5 ovarian, in the assay on EKVX NSCLC, in the assay on OVCAR-8 ovarian, in the assay on A549 NSCLC, in the assay with 786-0 renal and with UO-31 renal was more than 100 µM each time. For the same molecule, the TGI with SR leukemia was more than 100 µM.

Take `COc1ccccc1/C=C/C(=O)c1sc(-c2cccnc2)nc1C`: the TGI in the assay with HOP-92 NSCLC, with OVCAR-5 ovarian, with SF-539 CNS, with EKVX NSCLC, in the assay with OVCAR-8 ovarian and in the assay on A549 NSCLC was more than 100 µM each time. The TGI in the assay with 786-0 renal and with UO-31 renal was more than 100 µM throughout.

For the molecule `CC(=O)[CH-]C(=O)c1ccccc1.CC(=O)[CH-]C(=O)c1ccccc1.O=C([O-])C[O-].O=C([O-])C[O-].[Ti+4]`, the GI50 with OVCAR-5 ovarian was more than 100 µM; in the assay with SF-539 CNS it was 41.8 µM; in the assay on EKVX NSCLC, 96.7 µM; in the assay on OVCAR-8 ovarian, 77 µM; in the assay on A549 NSCLC, 18.2 µM; in the assay with 786-0 renal, 71.7 µM. The GI50 with UO-31 renal is 71.4 µM. In addition, the TGI in the assay with OVCAR-5 ovarian, in the assay with SF-539 CNS, in the assay on EKVX NSCLC, in the assay with OVCAR-8 ovarian, in the assay with A549 NSCLC and in the assay on 786-0 renal was more than 100 µM each time. In addition, the TGI in the assay on UO-31 renal is more than 100 µM.

On to `COc1ccc2[nH]c3c4c(c5cc(C(C)(C)C)ccc5c3c2c1)C(=O)N(c1ccccc1)C4=O`, for which the TGI is more than 100 µM in the assay with OVCAR-5 ovarian; 49 µM with SF-539 CNS; more than 100 µM with EKVX NSCLC; more than 100 µM in the assay on OVCAR-8 ovarian; more than 100 µM in the assay on A549 NSCLC; more than 100 µM with 786-0 renal. Besides, the TGI in the assay with UO-31 renal was more than 100 µM.

In the case of `CC(=O)[O-].CC(=O)[O-].[Mn+2].c1ccc(/C(=N\Nc2ccccn2)c2ccccn2)cc1`, the GI50 in the assay with HOP-92 NSCLC was 0.205 µM; in the assay with EKVX NSCLC, 0.0187 µM; in the assay on 786-0 renal, 0.097 µM. In addition, the TGI worked out at 11 µM with HOP-92 NSCLC; 0.665 µM in the assay on SF-539 CNS; 19.9 µM in the assay with EKVX NSCLC; 12.3 µM in the assay with OVCAR-8 ovarian; 14.4 µM in the assay on A549 NSCLC; 13.8 µM in the assay on 786-0 renal. This molecule had a TGI in the assay on UO-31 renal of 3.88 µM.

With `CCOC(=O)/C(=C/c1ccc(OC)c(OC)c1)C(=O)c1ccccc1`, the TGI in the assay on OVCAR-5 ovarian was 40.6 µM; in the assay on EKVX NSCLC it was 67.4 µM; in the assay on OVCAR-8 ovarian it was 76.8 µM; with A549 NSCLC, 90.2 µM; in the assay with 786-0 renal it was more than 100 µM; in the assay with UO-31 renal, 27.5 µM.

Turning to `CCCCCCCCCOC(=S)NC`, the TGI in the assay with HOP-92 NSCLC came out at 42.5 µM; in the assay with OVCAR-5 ovarian, 38.1 µM; in the assay on SF-539 CNS, 32.5 µM; with EKVX NSCLC, 51.6 µM; in the assay on OVCAR-8 ovarian, 44.9 µM; with A549 NSCLC it was 65.1 µM. In addition, the TGI came to 33.5 µM in the assay with 786-0 renal and 23.2 µM in the assay with UO-31 renal.

As for `CC1(C)CC23C(=O)N(c4ccccc4)C(=Nc4ccccc4)NC2=CC(C#N)=C(C#N)C3O1` (centres undefined), the TGI in the assay on HOP-92 NSCLC is 52.2 µM; in the assay on OVCAR-5 ovarian it was more than 100 µM; with SF-539 CNS, more than 100 µM; in the assay with EKVX NSCLC, more than 100 µM; with OVCAR-8 ovarian, more than 100 µM; in the assay on A549 NSCLC, more than 100 µM. The TGI in the assay on 786-0 renal and in the assay on UO-31 renal was more than 100 µM throughout.

Take `Cc1cc(C)c(C(=O)O)c(N)c1O`: the TGI in the assay on OVCAR-5 ovarian, with EKVX NSCLC, in the assay with OVCAR-8 ovarian, with A549 NSCLC, in the assay on 786-0 renal and with UO-31 renal was more than 100 µM each time. This molecule also had a TGI in the assay on SR leukemia of more than 100 µM.
